Test results published in patent US20050267169A1, “Watersoluble prodrugs of propofol” (priority 2002, published 2005).
In brackets after ≈: the same amount, converted by molar mass. Counter-ions that a name gives are not always drawn. Marks after values point to notes of the source that are not given here.

What was measured:
[1] = Hydrolysis in phosphate buffer containing 50% rat serum at 37° C.; assay type: in vitro ADME; settings: for half-life: 50% rat serum in phosphate buffer, 50% rat serum in pH 7.4 phosphate buffer, read-out: Half-lives at 37° C., 50% rat serum (converted); for Cleaved quantitatively to the parent drug in rat serum: rat serum solution
Procedure: Each reaction were initiated by adding 100 μL of the methanolic stock solution of compound under examination to 1.6 mL of preheated serum solution (final concentration about 1×10^−3 M) and the mixture was maintained in water bath at 37° C. At appropriate times, 100 μL samples were withdrawn and added to 500 μL of cold acetonitrile in order to deproteinize the serum. After mixing and centrifugation (10 min at 4000 rpm), 20 μL of the clear supematant were filtered through 0.2 μm membrane filter (Waters, PTFE 0.2 μm) and analyzed by HPLC.

porcine liver esterase = assay: Hydrolysis in the presence of porcine liver esterase; assay type: in vitro ADME; settings: for half-life: pig, porcine liver esterase, read-out: Half-lives at 37° C., Porcine liver esterase (13 U/mL) (converted); for half-life / Cleaved quantitatively to the parent drug in porcine liver esterase solution: 37° C.
Text: Hydrolysis of compounds 6a-d in the presence of porcine liver esterase was followed using a reported procedure (Bonina F P, Arenare L, Palagiano F, Saija A, Nava F, Trombetta D, De Caprariis P. 1998. Synthesis, stability, and pharmacological evaluation of nipecotic acid prodrugs. J. Pharm. Sci. 8: 561-567.).

[2] = Solubility in deionized water at 25° C.; assay type: physicochemical; settings: 72 h equilibration; for solubility at 72 h: thermodynamic from solid, read-out: Solubility (mg/mL) in deionized water
Procedure: The resulting mixture was vortexed for 10 min and then mechanically shaken in a thermostatic bath shaker (100 rpm) for 72 h to attain equilibrium. Next, the mixture was filtered through a 0.45 μm membrane filter (Millipore®, cellulose acetate) and an aliquot was diluted with an appropriate amount of water and analyzed for the aminoacid ester prodrug content spectrophotometrically at 210 nm. All of the manipulations were made without removal of the test tubes from the water bath, using thermostated pipettes, syringes, and buffer solutions. In Table II, as shown below, solubility data is compared with the data previously determined for propofol derivatives 2a-c (Trapani G. Latrofa A, Franco M, Lopedota A, Maciocco E, Liso G. 1998. Water-soluble salts of amino acid esters of the anesthetic agent propofol. Int. J. Pharm. 175: 195-204.).

GABAA receptor = assay: In vitro [35S]TBPS binding assay, unwashed rat cortical membranes; settings: for IC50: unwashed rat brain (cortical) membranes
Procedure: The data is expressed as a percentage of binding measured in the presence of solvent and are means of two experiments.
Rats were killed by decapitation and their brains rapidly removed on ice. The cerebral cortex was dissected out and homogenized in 50 volumes of ice-cold 50 mM Tris-citrate buffer (pH 7.4 at 25° C.) containing 100 mM CaCl2 using a Polytron PT 10 (setting 5, for 20 sec) and centrifuged at 20.000×g for 20 min. The resulting pellet was resuspended in 50 volumes of 50 mM Tris-citrate buffer (pH 7.4 at 25° C.) and used for the assay. [^35S]TBPS binding was determined in a final volume of 500 μL consisting of. 200 μL of tissue homogenate (0.20-0.25 mg protein), 50 μL of [^35S]TBPS (final assay concentration of 1 nM), 50 μl 2 M NaCl, 50 μL of drugs or solvent and buffer to volume. Incubations (25° C.) were initiated by addition of tissue and terminated 90 min later by a rapid filtration through glass-fiber filter strips (Whatman GF/B, Clifton, N.J.), which were rinsed twice with a 4 mL portion of ice-cold Tris-citrate buffer using a Cell Harvester filtration manifold (model M-24m Brandel, Gaithersburg, Md.). Filter bound radioactivity was quantitated by liquid scintillation spectrometry. […] Protein content was determined by the method of Lowry^20 using bovine serum albumin as a standard.

[3] = Chemical hydrolysis in 0.05 M phosphate buffers at 37° C.; assay type: physicochemical; settings: phosphate buffer, pH 7.4, 0.05 M phosphate buffer pH 7.4, 37° C.; for half-life: read-out: Half-lives at 37° C., pH 7.4 buffer (converted)
Procedure: The hydrolysis of the propofol esters 6a-d was studied in aqueous buffer solutions (0.05 M phosphate buffers; ionic strength of 0.5 maintained by adding a calculated amount of KCl) at pH values of 4, 6, and 7.4 and temperature of 37±0.2° C. The reactions were initiated by adding 100 μl of a stock solution of the ester (13 mg/mL methanol) to 20 mL of the buffer solution preheated at 37° C., in screw-capped test tubes (final concentration about 2.0×10^−4 M). The solutions were kept in a water bath at a constant temperature, and at appropriate intervals aliquots of 20 μL were withdrawn and analyzed by HPLC. Pseudo-first-order rate constants for the hydrolysis were determined from the slopes of linear plots of the logarithm of residual propofol ester against time.
The kinetics of hydrolysis of the derivatives 6a-d were determined in 0.05 M phosphate buffers at pHs 4.0, 6.0 and 7.4 at 37° C. as well as in rat serum solution and in the presence of porcine liver esterase.

righting reflex = assay: Anesthetic activity: loss of righting reflex; assay type: in vivo, rat; settings: rats, i.p.; propofol and Diprivan 60 mg/kg, 6a 105 mg/kg (equimolar); mean ± s.e.m.
Procedure: The loss and reestablishment of righting responses, time of anesthesia induction, and sleeping time were also assessed. Rats (five per group) were treated with propofol and Diprivan®, both at a dose of 60 mg/kg, and an equimolar dose of compound 6a (105 mg/kg) and were continuously monitored for the loss of righting reflex (onset and duration). Propofol and its derivative 6a were dissolved in saline with a drop of Tween 80 per 5 mL and administered intraperitoneally in a volume of 0.3 mL per 100 g of body mass. Anesthesia induction (sleep onset) was defined as the time from drug administration to loss of righting reflex, whereas the sleeping time was the time from the loss of the righting reflex until the animals were plantigrade on all four legs. The significance of differences in behavioral data were analyzed by the ANOVA test.

[4] = system: pentylenetetrazole-induced seizures; assay: Anticonvulsant activity against pentylenetetrazole-induced seizures; assay type: in vivo, rat; settings: for Anticonvulsant activity, No. of rats protected/tested: pentylenetetrazole 55 mg/kg i.p.
Procedure: The anticonvulsant activity against pentylenetetrazole-induced seizures (55 mg/kg) was measured.

[5] = molecular target: T1, human α1β2γ2 GABAA receptors (Homo sapiens, UniProt P14867+P18507+P47870); assay: Voltage-clamp electrophysiology in Xenopus laevis oocytes; assay type: cell-based; settings: GABA EC20 (2-10 μM); for Effect on GABA-evoked chloride currents: concentration-dependent
T1 construct: expressed in transfected cells; host or cells: Xenopus laevis oocytes (nuclear injection of cDNAs in pCDM8)
Procedure: Values are expressed as mean (6-13 different oocytes)±s.e.m. percentage of the potentiation of the control response to GABA (EC20, 2-10 μM).
Complementary DNAs encoding the human α1, β2, and γ2 GABAA receptor subunits were subcloned into the pCDM8 expression vector (Invitrogen, San Diego, Calif.). The cDNAs were purified with the Promega Wizard Plus Miniprep DNA Purification System (Madison, Wis.) and then resuspended in sterile distilled water, divided into portions, and stored at −20° C. until used for injection. Stage V and VI oocytes were manually isolated from sections of Xenopus laevis ovary, placed in modified Barth's saline (MBS) containing 88 mM NaCl, 1 mM KCl, 10 mM Hepes-NaOH buffer (pH 7.5), 0.82 mM MgSO4, 2.4 mM NaHCO3, 0.91 mM CaCl2, and 0.33 mM Ca(NO3)2 and treated with 0.5 mg/mL of collagenase Type IA (Sigma) in collagenase buffer (83 mM NaCl, 2 mM KCl, 1 mM MgCl2, 5 mM Hepes-NaOH buffer, pH 7.5) for 10 min at room temperature, to remove the follicular layer. A mixture of GABAA receptor α1, β2, and γ2 subunit cDNAs (1.5 ng/30 nL) was injected into the oocyte nucleus using a 10 μL glass micropipette (10-15 μm tip diameter). The injected oocytes were cultured at 19° C. in sterile MBS supplemented with streptomycin (10 μg/mL), penicillin (10 U/mL), gentamicin (50 μg/mL), 0.5 mM theophylline, and 2 mM sodium pyruvate. Electrophysiological recordings began approximately 24 h following cDNA injection. Oocytes were placed in a 100-μL rectangular chamber and continuously perfused with MBS solution at a flow rate of 2 mL/min at room temperature. The animal pole of oocytes was impaled with two glass electrodes (0.5 to 3 MΩ) filled with filtered 3 M KCl and the voltage was clamped at −70 mV with an Axoclamp 2-B amplifier (Axon Instruments, Burlingame, Calif.). Currents were continuously recorded on a strip-chart recorder. Resting membrane potential usually ranged from −30 to −50 mV. Drugs were perfused for 20 s (7-10 s were required to reach equilibrium in the recording chamber). Intervals of 5 to 10 min were allowed between drug applications.

[6] = unwashed rat cortical membranes
[7] = propofol 40 mg/kg i.p. or equimolar dose

T1 sequence (P14867 28-456): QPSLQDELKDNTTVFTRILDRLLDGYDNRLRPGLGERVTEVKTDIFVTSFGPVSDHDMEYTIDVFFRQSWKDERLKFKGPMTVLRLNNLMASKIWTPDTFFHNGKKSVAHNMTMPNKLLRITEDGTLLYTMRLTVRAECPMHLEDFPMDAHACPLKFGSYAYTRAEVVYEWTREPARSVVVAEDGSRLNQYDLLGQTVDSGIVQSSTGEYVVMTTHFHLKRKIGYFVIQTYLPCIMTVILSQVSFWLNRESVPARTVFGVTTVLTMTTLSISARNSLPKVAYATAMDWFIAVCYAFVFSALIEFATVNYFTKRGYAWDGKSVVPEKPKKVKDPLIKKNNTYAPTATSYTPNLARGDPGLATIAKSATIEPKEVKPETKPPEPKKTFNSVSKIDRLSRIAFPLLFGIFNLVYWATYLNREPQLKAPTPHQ
T1 sequence (P47870 25-512 limits assumed): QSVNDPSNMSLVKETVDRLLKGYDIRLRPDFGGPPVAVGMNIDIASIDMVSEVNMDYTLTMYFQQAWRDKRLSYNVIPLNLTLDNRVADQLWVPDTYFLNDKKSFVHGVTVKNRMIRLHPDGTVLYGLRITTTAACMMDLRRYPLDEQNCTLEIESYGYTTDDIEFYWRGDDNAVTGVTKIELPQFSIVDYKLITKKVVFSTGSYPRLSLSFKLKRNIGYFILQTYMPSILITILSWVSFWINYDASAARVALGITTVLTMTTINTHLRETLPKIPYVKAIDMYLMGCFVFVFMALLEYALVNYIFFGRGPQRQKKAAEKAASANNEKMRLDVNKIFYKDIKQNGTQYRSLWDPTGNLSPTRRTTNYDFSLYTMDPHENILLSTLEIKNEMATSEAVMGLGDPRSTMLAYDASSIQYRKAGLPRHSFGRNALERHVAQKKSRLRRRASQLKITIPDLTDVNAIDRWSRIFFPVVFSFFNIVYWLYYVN
T1 sequence (P18507 40-475): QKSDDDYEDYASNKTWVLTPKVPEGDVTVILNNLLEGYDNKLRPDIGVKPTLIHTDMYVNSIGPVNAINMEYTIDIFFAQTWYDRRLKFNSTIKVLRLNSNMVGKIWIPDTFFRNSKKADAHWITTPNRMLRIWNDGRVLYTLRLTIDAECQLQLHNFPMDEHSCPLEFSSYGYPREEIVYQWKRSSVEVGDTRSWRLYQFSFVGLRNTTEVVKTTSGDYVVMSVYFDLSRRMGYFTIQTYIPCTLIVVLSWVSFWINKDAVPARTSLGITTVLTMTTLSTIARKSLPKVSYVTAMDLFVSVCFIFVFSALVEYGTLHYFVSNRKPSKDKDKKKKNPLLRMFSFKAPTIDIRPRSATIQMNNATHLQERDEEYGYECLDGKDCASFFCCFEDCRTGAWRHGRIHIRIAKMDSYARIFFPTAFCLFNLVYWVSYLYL

Row | SMILES | half-life [1] | Cleaved quantitatively to the parent drug in rat serum [1] | half-life (porcine liver esterase; 13 U/mL) | Cleaved quantitatively to the parent drug in porcine liver esterase solution (porcine liver esterase) | solubility at 72 h [2] | IC50 (GABAA receptor) | half-life [3] | Doses at which [35S]TBPS binding is reduced (GABAA receptor; [6]) | half-life at 48 h ([3]; read-out: Half-lives at 37° C., pH 7.4 buffer (stability class)) | Loss of righting reflex, LRR, Duration (righting reflex) | Loss of righting reflex, LRR, Onset (righting reflex) | Anticonvulsant activity, No. of rats protected/tested [4, 7] | Protection of animals against pentylenetetrazole-induced convulsions [4, 7] | Concentration of maximal effect on GABA-evoked chloride currents [5] | Effect on GABA-evoked chloride currents [5] | IC50 (GABAA receptor; hydrochloride) | Half-lives at 37° C., Porcine liver esterase (13 U/mL) (porcine liver esterase; 13 U/mL) | Protection of animals against pentylenetetrazole-induced convulsions ([4]; dose equimolar to 40 mg/kg propofol, i.p.) | Solubility (mg/mL) in deionized water [2] | Effect on [35S]TBPS binding (GABAA receptor; [6])
1 | CC(C)c1cccc(C(C)C)c1OC(=O)C1CCCCN1 (racemic) [Compound 6b, propofol pipecolinate] | 2.5 min | cleaved quantitatively | 13 min | cleaved quantitatively | 13.4 mg/mL (≈ 46.3 mM) | 39.5 µM | 420 min |  |  |  |  |  |  |  |  |  |  |  |  | 
2 | CC(C)c1cccc(C(C)C)c1OC(=O)C1CCCNC1 (racemic) [Compound 6c] | 360 min | not | 180 min | not | 525 mg/mL (≈ 1810 mM) | 152 µM |  | higher than 100 μM | > 2880 min |  |  |  |  |  |  |  |  |  |  | 
3 | CC(C)c1cccc(C(C)C)c1O [Compound 1, 2,6-diisopropylphenol, reference compound] |  |  |  |  | ~0.15 mg/mL (≈ 0.841 mM) | 4.17 µM |  |  |  | 2245 ± 252 s | 114.4 ± 9.5 s | 10/10 | protected completely |  |  |  |  |  |  | 
4 | CC(C)c1cccc(C(C)C)c1OC(=O)[C@@H]1CCCN1 [Compound 6a, 2.6-diisopropylphenyl pirrolidin-2-carboxylate hydrochloride] | 17 min | cleaved quantitatively | 17 min | cleaved quantitatively | 350 mg/mL |  | 360 min |  |  | 2403 ± 592 s | 162.7 ± 4.3^c,d sec | 10/10 | protected completely | 50 µM | enhanced | 31.7 µM |  |  |  | 
5 | CC(C)c1cccc(C(C)C)c1OC(=O)C1CCNCC1 [Compound 6d, propofol isonipecotate] |  |  |  | not |  |  |  |  |  |  |  | 6/10 |  | 100 µM | diminished |  | 45 h | 60% | 29.7 mg/mL (≈ 103 mM) | increase of [^35S]TBPS binding
